Data published in patent US9173898B2, “Methods of treating giardiasis” (THE UNITED STATES OF AMERICA, as represented by the …, priority 2010, dated 2015).
Values after ≈ are worked out from the molar mass of the structure shown. Where a name gives a salt, the structure may show the parent alone.

Legend:
CHO cells [1] = assay: CHO cell cytotoxicity assay in 1536-well format (ATP content counter-screen); type: cell-based, Chinese hamster; settings: concentration at which 50% of DMSO control ATP levels are detected, 48 hours
Procedure: For the viability assay in 1536-well format, 2 μL media was dispensed per well into 1536-well white solid-bottom plates using Multidrop Combi dispenser. Subsequently, 23 nL/well compound solutions or DMSO controls were dispensed to the assay plates via a pintool workstation. The Chinese hamster ovary (CHO) cells were grown in T225 flasks to 70% confluence under a standard cell culture condition (ATCC), detached with 0.25% Trypsin/EDTA, and seeded at 250 cells/well in 4 μL media (Dulbecco's Modified Eagle Medium, 10% fetal bovine serum, 1× penicillin/streptomycin). The plates were incubated at 37° C. with 5% CO2 and 95% humidity for 48 hours. Subsequently, ATP content was measured following the addition of 4 μL/well of ATPLite reagent and a 20 min incubation on a ViewLux plate reader.
Data from the CHO cell counter-screen underwent the same initial analysis, with the exception that raw luminescence counts were normalized relative to DMSO only wells (0% activity) and 38.3 μM camptothecin treated wells (100% activity).
CHO cells, commonly used in high throughput compound screening, were selected to determine the cytotoxicity of the compounds towards a mammalian cell line.

CHO cells [2] = assay: as above; type: cell-based, Chinese hamster; settings: for Emax: Cricetulus griseus, CHO, 48 h, percent reduction in ATP levels compared with 38.3 µM camptothecin at maximal compound concentration, read-out: CHO Efficacy; for CHO Efficacy: percent reduction in ATP levels compared with 38.3 mM camptothecin at maximal compound concentration
Giardia WB = assay: Giardia viability (ATP content) assay in 1536-well format; type: cell-based, Giardia lamblia; settings: for Emax: 48 h, read-out: Giardia WB Efficacy; for Emax / Giardia WB Efficacy: percent reduction in ATP levels compared with 38.3 mM Mnz at maximal compound concentration; for IC50: concentration at which 50% of DMSO control ATP levels are detected, 48 hours, 1536-well
Procedure: (§1) For the viability assay in 1536-well format, 2 μL media was dispensed per well into 1536-well white solid-bottom plates using a Multidrop Combi dispenser (Thermo Scientific). Subsequently, 23 nL/well compound solutions or DMSO controls were dispensed to the assay plates containing media via a pintool workstation (Kalypsys, San Diego). Trophozoites were chilled on ice to detach from glass tubes, and unless otherwise noted, were diluted to 250,000 trophozoites/mL with ice cold media. The trophozoite suspension was kept on ice and dispensed as 4 μL/well with the Multidrop Combi dispenser. Attachment of trophozoites to dispensing apparatus was avoided with continuous dispensing and icing of the trophozoite suspension. The plates were covered with plastic low-evaporation lids, individually sealed in Type A Bio-Bags and incubated at 37° C. for 48 hours. Following incubation, 4 μL/well of ATPLite reagent was dispensed with the Multidrop Combi dispenser. The assay plates were briefly centrifuged at 1000 RPM and luminescence signal was detected on a ViewLux plate reader (PerkinElmer) after 20 min incubation at room temperature. Signal-to-basal (S/B) ratio, Z′ factor and coefficient of variation (CV) were calculated from 32 wells with 0.38% DMSO (total signal) and 32 well with 38.3 μM Mnz (basal signal).
Assay miniaturization in 1,536-well plate format was undertaken to increase throughput and facilitate screening of large compound libraries. The volume of trophozoites suspension was reduced to 6 μL/well and the ATP detection reagent was reduced to 4 μL/well in the 1536-well assay plates. […] The 100 trophozoites/well density was selected for further experiments to reduce the preparation work of Giardia cultures. Following these conditions, a DMSO test plate was used to assess the statistical parameters of the assay in the 1,536-well plate format.
Using the above established conditions in 1536-well format, each compound of the invention was tested at 5 concentration points, ranging from 61 nM-38.3 μM in a 1:5 dilution ratio (Inglese, J., D. S. Auld, A. Jadhav, R. L. Johnson, A. Simeonov, A. Yasgar, W. Zheng, and C. P. Austin. 2006. Quantitative high-throughput screening: a titration-based approach that efficiently identifies biological activities in large chemical libraries. Proc Natl Acad Sci USA 103:11473-8).

[3] = system: Giardia lamblia GS isolate; assay: Minimum Lethal Concentration (MLC) determination; type: cell-based; settings: 3 days with compound, then 3 days regrowth without compound, tube without any live organisms
Procedure: Giardia lamblia GS isolate was used throughout the Minimal Lethal Concentration (MLC) experiments. Organisms were grown and maintained in TYI-S-33 medium supplemented with bile and antibiotics (Keister, 1983). Cidal activity was determined in 96-well culture plates (Corning Incorporated) followed by Giardia trophozoites regrowth in 8 ml tubes (Fisher Scientific). Dry compounds were dissolved in DMSO (Sigma) at stock concentration of 10 mM and then added to the growth media to ensure final DMSO concentration of no more than 0.5%. 100 μl of the compound solutions were placed in the wells by serial dilutions. 10 μl of Giardia trophozoites containing 10000 organisms were then added. Serial dilutions of metronidazole served as the positive control and the DMSO-containing medium served as the negative control. Plates were incubated under anaerobic conditions in sealed bags (Becton Dickinson and Company) at 37° C. for 3 days and surveyed visually under microscope to check survival, mobility and attachment of trophozoites. The plate was chilled on ice for 30 min and the entire contents of 4 wells in the growth/death transition were transferred into the 8 ml tubes containing growth media only (without the compound). After 3 days of incubation at 37° C., tubes were checked under microscope for any surviving trophozoites. MLC was attributed to the tube without any live organisms. See, e.g., Keister, D. B. 1983. Axenic culture of Giardia lamblia in TYI-S-33 medium supplemented with bile. Trans. Soc. Trop. Med. Hyg. 77:487-488.

G. lamblia GS isolate = assay: ATP content assay against G. lamblia GS isolate; type: cell-based, Giardia lamblia; settings: Giardia duodenalis; Table 2, screen; read-out: Giardia GS IC50
Procedure: as §1
As a further confirmatory step, some compounds that were commercially available were purchased as powder samples and tested against the G. lamblia GS isolate using both the ATP content and enumeration assays (Table 3).

Compound	IC50 (CHO cells [1]; Cricetulus griseus, CHO)	Emax (CHO cells [2])	Emax (Giardia WB; Giardia)	IC50 (Giardia WB; Giardia)	MBC ([3]; Giardia duodenalis, 72 h)	IC50 (CHO cells [1])	CHO Efficacy (CHO cells [2])	IC50 (Giardia WB)	Giardia WB Efficacy (Giardia WB)	MBC [3]	IC50 (G. lamblia GS isolate)
Oc1ccc(/C=C\c2cc(O)cc(O)c2)cc1 [Resveratrol]	39200 nM	22.2%	80.7%	4940 nM	> 208 µM	–	–	–	–	–	–
O=C(Nc1ncc([N+](=O)[O-])s1)c1cccs1 [Tenonitrozol]	> 100000 nM	21.5%	93.1%	290 nM	1.54 µM (≈ 0.393 µg/mL)	–	–	–	–	–	–
Amlexanox	–	–	–	–	–	3260 nM	89.3%	2590 nM	92.4%	>41.7 µM	–
COc1cc2c(cc1O)CCN[C@]21CS[C@H]2c3c(OC(C)=O)c(C)c4c(c3[C@H](COC1=O)N1C2[C@H]2c3c(cc(C)c(OC)c3O)C[C@@H]([C@@H]1O)N2C)OCO4 (stereo partly drawn) [Ecteinascidin 743]	50 nM	97.6%	95.9%	6.51 nM	–	–	–	–	–	–	–
COC(=O)Nc1nc2ccc(C(=O)c3cccs3)cc2[nH]1 [Nocodazole]	370 nM	54.4%	86.7%	183 nM	0.15 µM (≈ 0.0452 µg/mL)	–	–	–	–	–	–
CCCCc1ccc2[nH]c(NC(=O)OC)nc2c1 [Parbendazole]	440 nM	60.3%	90.2%	312 nM	–	–	–	–	–	–	–
CC(=O)Nc1ncc([N+](=O)[O-])s1 [Nithiamide]	> 100000 nM	25.9%	94.6%	580 nM	4.63 µM (≈ 0.867 µg/mL)	–	–	–	–	–	317 nM
C=CCNC1=C2C[C@@H](C)C[C@H](OC)[C@H](O)[C@@H](C)/C=C(\C)[C@H](OC(N)=O)[C@@H](OC)/C=C\C=C(/C)C(=O)NC(=CC1=O)C2=O [17-Allylamino geldanamycin]	520 nM	86.9%	95.6%	81.9 nM	13.9 µM (≈ 8.14 µg/mL)	–	–	–	–	–	–
CCN(CC)C(=S)SSC(=S)N(CC)CC [Disulfiram]	200 nM	53.6%	95%	6500 nM	–	–	–	–	–	–	–
COC(COC(N)=O)C1=C(N2CC2)C(=O)C(C)=C(N2CC2)C1=O (stereo not drawn) [Carboquone]	580 nM	98.4%	97.4%	183 nM	1.54 µM (≈ 0.495 µg/mL)	–	–	–	–	–	–
Oc1cc(O)cc(/C=C/c2ccc(O)c(O)c2)c1 [Piceatannol]	> 100000 nM	-16.6%	81.3%	3260 nM	13.9 µM (≈ 3.4 µg/mL)	–	–	–	–	–	3560 nM
N[C@H](C(=O)O)[C@@H]1CC(Cl)=NO1 [Acivicin]	27400 nM	52.5%	85.9%	170 nM	–	–	–	–	–	–	–
CC[C@]1(O)C[C@@H]2C[N@@](CCc3c([nH]c4ccccc34)[C@@](C(=O)OC)(c3cc4c(cc3OC)N(C)[C@H]3[C@@](O)(C(=O)OC)[C@H](OC(C)=O)[C@]5(CC)C=CCN6CC[C@]43[C@@H]65)C2)C1 [Vinblastine sulfate]	100 nM	64.1%	90.1%	1450 nM	–	–	–	–	–	–	–
O=[N+]([O-])c1ccc(OC2OC(CO)C(O)C(O)C2F)c([N+](=O)[O-])c1 (stereo not drawn) [Dinitroph-dfgp]	> 100000 nM	-8%	44.2%	43400 nM	–	–	–	–	–	–	–
NC(=O)c1cc(N2CC2)c([N+](=O)[O-])cc1[N+](=O)[O-] [CB 1954]	–	–	–	–	–	> 100000 nM	−16.9%	120 nM	96.4%	–	–
CC(C)C[C@H](NC(=O)[C@H](Cc1ccccc1)NC(=O)c1cnccn1)B(O)O [Bortezomib (S,S), Bortezomib]	20 nM	48.2%	94.4%	110 nM	–	–	–	–	–	–	–
Bortezomib [Bortezomib (S,R)]	–	–	–	–	–	10 nM	36.2%	70 nM	92.8%	–	–
O=C1c2c(O)ccc(O)c2C(=O)c2c(NCCNCCO)ccc(NCCNCCO)c21 [Mitoxantrone]	5800 nM	95.8%	87.5%	8190 nM	> 41.7 µM	–	–	–	–	–	–
CN(C)C(=S)SSC(=S)N(C)C [Tetramethylthiur am disulfide, tetramethylthiuram disulfide]	520 nM	97.6%	97.6%	5160 nM	–	–	–	–	–	–	–
c1ccc2c(c1)[I+]c1ccccc1-2 [Diphenylene- iodonium chloride, diphenyleneiodonium chloride]	2060 nM	95.9%	96%	259 nM	–	–	–	–	–	–	–
CC(=O)[C@]1(O)Cc2c(O)c3c(c(O)c2[C@@H](O[C@H]2C[C@H](N)[C@H](O)[C@H](C)O2)C1)C(=O)c1ccccc1C3=O [Idarubicin HCl]	200 nM	88.7%	94.1%	3260 nM	> 41.7 µM	–	–	–	–	–	–
